From US20110186299A1, “Low-Toxicity Biodegradable Corrosion Inhibitors” (priority 2008, published 2011)

Assays:
[1] = test system: freshwater algae (Pseudokirchneriella subcapitata); assay: Algal toxicity, growth inhibition of freshwater algae over 72 hours (OECD Guideline 201); format: cell-based; details: inhibition of 50% of algal growth
Procedure: The toxicity of the substances for the environment can be measured with regard to various standardized tests. One of the more sensitive consists of the measurement of the toxicity with regard to freshwater algae (Pseudokirchneriella subcapitata). The test is carried out according to the OECD Guideline 201. It consists in evaluating the inhibition of the growth of the algae over a period of time of 72 hours. The characteristic parameter is the EC50, which is the concentration of the substance which brings about inhibition of 50% of the algal growth during the test.

[2] = Biodegradability in seawater (OECD Guideline 306); details: marine environment
Procedure: The biodegradability tests are carried out in a marine environment according to the OECD Guideline 306.

Row | Molecule | Algal toxicity (EC50 in mg/l) [1] [mg/L] | OECD 306 Biodegradability, % of biodegradation in 28 days [2] [%]
1 | CCCCCCCCC=CCCCCCCCC1=NCCN1CCN [Imidazoline A, N-aminoethyl-2-heptadecenylimidazoline] | 0.0047 | 57
2 | N-aminoethyl-2-heptadecenylimidazoline maleate [Example 2] | 1 | 66
